{"source": "patent US5637309A", "about": "“Physiologically active substance-prolonged releasing-type pharmaceutical preparation” (Shiseido Company, Ltd., priority 1993, dated 1997)", "key": {"[1]": {"system": "basilar artery", "assay": "Cerebral vasospasm inhibition test on maxadilan (SEQ ID NO: 3) by cisterna puncture, angiography of the basilar artery", "format": "in vivo, Japanese white rabbit", "details": "aqueous solution, 7 μg per kg", "excerpt": "Cerebral vasospasm inhibition test on maxadilan (SEQ ID NO: 3)\nA Japanese white rabbit (male, weighing 2-3 kg) was subjected to general anesthesia by injection of sodium pentobarbital through the auricular vein. After the rabbit was retained so as not to move, the surroundings of the punctured vein were disinfected with sterilized ethanol, a self-retaining needle was punctured into the vein, and immediately thereafter, a silicone-made extension tube equipped, at one end, with a three way cock connected at the two ways with 10-ml syringes each containing physiological saline and connected at the residual way with a 10-ml syringe containing sodium pentobarbital was connected to the self-retaining needle (when the blood vessel is thin, the blood vessel is stimulated by fingers to dilate it). […]\nA spot for angiography was determined by transillumination, the head was fast fixed, back flow of the blood was confirmed, and 0.8 ml of a contrast medium was injected under a certain pressure (2.3 kg/cm^2). […]\nGroups of rabbits, one group consisting of 5 animals, were treated as mentioned above, and among them, rabbits were selected wherein when the basilar artery was divided, starting from the junction from the vertebral artery, into three equal parts, and the diameter at the middle point was measured, spasm occurred at a level of 18% or more. […]"}, "[2]": {"details": "relative to SEQ ID NO: 2; cited from earlier work"}}, "data": [{"substance": "SEQ ID NO: 3: peptide wherein an amino acid sequence residue GSIL- is bonded to the N-terminus of SEQ ID NO: 1 maxadilan", "values": [{"measurement": "Inhibition of spasm compared to the sterile water administration group", "setting": "[1]; 3 days after blood injection", "value": "spasm was significantly inhibited"}, {"measurement": "Duration of significant inhibition of spasm (from immediately after the administration)", "setting": "[1]; vs sterile water group", "value": "about 4 hours"}, {"measurement": "Vasodilative action (particularly, erythema activities), times higher than that of SEQ ID NO: 2", "setting": "[2]", "value": "about 10 times"}]}]}
